The source of these data is patent US5693805A, “Process to derivatives of piperizinylcamphorsulfonyl oxytocin antagonists” (Merck & Co., Inc., priority 1995, dated 1997).

The assay has as its target T1, uterine OT receptors (Rattus norvegicus, UniProt P70536).
T1 construct: from tissue; host or cells: uterus of DES-treated rats, crude membrane preparation
T1 sequence (P70536 1-388): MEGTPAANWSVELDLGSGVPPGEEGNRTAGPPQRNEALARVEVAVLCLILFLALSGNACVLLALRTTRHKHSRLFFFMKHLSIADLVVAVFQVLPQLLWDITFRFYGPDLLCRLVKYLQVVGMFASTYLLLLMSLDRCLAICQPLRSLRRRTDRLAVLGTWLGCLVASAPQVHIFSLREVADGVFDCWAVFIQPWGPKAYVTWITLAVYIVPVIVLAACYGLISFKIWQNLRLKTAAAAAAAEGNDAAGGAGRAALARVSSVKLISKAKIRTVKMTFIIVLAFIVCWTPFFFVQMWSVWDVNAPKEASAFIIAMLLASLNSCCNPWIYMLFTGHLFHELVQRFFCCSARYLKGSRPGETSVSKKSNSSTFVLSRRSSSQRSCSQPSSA
Put plainly: [3H]Oxytocin radioligand binding assay to uterine OT receptors (crude membrane preparation of uteri from DES-treated rats). The note with it: competition at equilibrium, 60 min, 22° C., 1 nM [3H]OT, pH 7.4; Ki = IC50/1+c/Kd, Kd [3H]OT (uterus) 0.7 nM; three to six separate determinations. As for the experimental part:
The high affinity binding of [^3 H] […] Competition studies were conducted at equilibrium (60 minutes; 22° C.) using 1 nM[^3 H]OT in the following assay buffer: 50 mM Tris-HCl, 5 mM MgCl2, and 0.1% BSA, pH 7.4.

The Ki is a dissociation constant, usually derived from enzyme kinetics or from competition with a known ligand. Low readings indicate higher affinity, high ones lower affinity.

Compound `Cc1ccccc1N1CCN(S(=O)(=O)C[C@]23CC[C@H](C[C@@H]2NC(=O)[C@@H](N)CCS(C)(=O)=O)C3(C)C)CC1` [Compound I] gave a Ki of 7.7 nM.
